Measured values reported in US6759385B1, “Methods to treat undesirable immune responses” (Regents of the University of Minnesota, priority 1997, dated 2004).
“Also recorded” adds a separate entry of the source.

Key:
anti-FVIII CD4+ cells = experiment: CD4+ epitope repertoire to FVIII in hemophilia A mice; assay type: cell-based, mouse; settings: mice immunized s.c. with FVIII in Freund adjuvant
Description: CD4^+ epitope repertoire to FVIII in hemophilia A mice. Mice were immunized with 1 microgram of purified recombinant human FVIII emulsified in Freund adjuvant, and injected subcutaneously three times. The first injection utilized complete Freund adjuvant. This procedure, as opposed to i.v. injections of soluble FVIII, was selected to ensure a strong immunization to FVIII and to reveal the broadest epitope repertoire recognized by anti-FVIII CD4^+ cells.
FIG. 48 summarizes the results obtained regarding the anti-FVIII CD4^+ repertoire in the mice thus immunized. The individual peptides are indicated with codes that include two numbers, corresponding to the position of the first and last peptide residue on the sequence of the FVIII precursor. The responses to the individual peptides are organized in panels corresponding to the different domains, as indicated.

[1] = test system: anti-TAChR and anti-peptide IgG subclasses; experiment: ELISA of anti-TAChR and anti-peptide IgG subclasses (Example III); assay type: in vivo, mouse; settings: IL-4 KO mice, nasal α epitope pool
Experimental: Assay of Anti-TAChR and Anti-peptide IgG Subclasses. The relative concentration of IgG subclasses of anti-TAChR and anti-peptide antibodies in the sera of peptide- and sham-treated mice was measured by ELISA after immunization with TAChR. Pooled sera from three-four mice that had received identical treatments was used. The sera used in this assay was obtained at the end of the observation period (10 weeks after beginning of the anti-TAChR immunization).
Ninety-six well plates (Nunc, Karstrup, Denmark) were washed extensively and incubated as follows: 4 hours with a 10 μg/ml solution of TAChR or of individual peptides Tα150-169, Tα181-200 and Tα360-378 in 0.1 M Na phosphate buffer, pH 9.5 (two wells for each antigen), 1 hr with PBS plus 3% bovine serum albumin (BSA), 2 hours with mouse serum (serial dilutions from 1:100 to 1:40,000 in PBS plus 3% BSA), 1 hr with a dilution 1:1000 in PBS plus 3% BSA of goat antibody specific for the total IgG, or IgGl, or IgG2a, or IgG2b or IgG3 (Mouse Monoclonal Isotyping Kit, Sigma, St. Louis, Mo.), and 30 minutes with a 1:3000 dilution of peroxidase-conjugate rabbit anti-goat IgG (Sigma) in PBS plus 3% BSA. The plates were washed, and developed them for 20-60 minutes with ABTS peroxidase substrate system (Kirkegaard & Perry Laboratories Inc., Gaithersburg, Md.). […] The OD was read at 405 nanometers. […]

[2] = test system: CD8+ depleted spleen cells; experiment: Lymphocyte proliferation assay, CD8+ depleted spleen cells of IL-4 KO mice; assay type: cell-based, mouse; settings: for recognition of individual peptide by cells from sham-treated mice: IL-4 KO mice immunized with TAChR, 10 μg/ml peptide
Experimental: Lymphocyte Proliferation Assay. Two weeks after the last immunization, spleen cells (Bellone et al., 1991) were obtained from three identically treated IL-4 KO mice. The cells were pooled and depleted them in CD8^+ cells using paramagnetic beads and rat anti-mouse CD8^+ antibody (Pharmingen, San Diego, Calif.). The cells were suspended in RPMI-1640 (Gibco, Grand Island, N.Y.) supplemented with 10% heat inactivated fetal calf serum (Gibco), 50 μM 2-mercaptoethanol, 1 mM L-glutamine, 10 mM Hepes, 1 mM sodium pyruvate, 100 U/ml penicillin and 100 μg/ml streptomycin (×10^6 cells/ml). The cells were seeded in triplicate in 96 flat-bottom well plates (200 μl/well). One of the following antigens or stimulants was added: 10 μg/ml phytohemoagglutinine (PHA) (Sigma); 10 μg/ml TAChR; the pools of overlapping peptides spanning the α, β, γ, or δ subunit sequences (5 μg/ml) of each peptide); and 10 μg/ml of the individual a subunit peptides. Controls were triplicate wells cultivated without any antigen, or with or a 20-residue control peptide synthesized by the same method, unrelated to the TAChR sequence (10 μg). After four days the cells were labeled for 16 hours with ^3H-thymidine (1 μCi per well, specific activity 6.7 Ci/mmol, Dupont, Boston, Mass.), and harvested (Titertek, Skatron, Sterling, Va.). The ^3H-thymidine incorporation was measured by liquid scintillation.

spleen CD4+ T-cells = experiment: Lymphocyte proliferation assay, spleen CD4+ T-cells (Example IV); assay type: cell-based, mouse; settings: TAChR-immunized B6 mice, 5 or 10 μg/ml
Experimental: Lymphocyte proliferation assay. Five to seven days after the last TAChR immunization, CD4^+ T-cells (Bellone et al., 1991a) were purified from the pooled spleens of three to four mice that had received identical treatments. Irradiated (3000 rad) spleen cells from non-immunized mice were diluted as needed in RPMI-1640 (Gibco, Grand Island, N.Y.) supplemented with 10% heat inactivated fetal calf serum (Gibco), 50 μM 2-mercapto-ethanol, 1 mM L-glutamine, 10 mM HEPES, 1 mM sodium pyruvate, 100 U/ml penicillin and 100 μg/ml streptomycin (culture medium) and used as APC. The spleen CD4^+ T-cells (1×10^6/ml in culture medium, 100×1/well) were seeded in triplicate in 96 flat-bottom well plates containing 100×1 of 5×10^6/ml APC. One of the following Ag was added: 10 μg/ml PHA (Sigma); 5 or 10 μg/ml TAChR; 5 or 10 μg/ml of the individual epitope peptides. The concentrations of TAChR and epitope peptides are in the saturating range of the dose dependence curve (Bellone et al., 1991a), and yielded consistent results. Controls were triplicate wells containing CD4^+ cells and APC without any Ag, or with the control peptide (10 μg/ml). After 4 days the cells were labeled for 16 hours with ^3H-thymidine (1 μCi per well, specific activity 6.7 Ci/mmol, Dupont, Boston, Mass.) and harvested (Titertek, Skatron, Sterling, Va.). The ^3H-thymidine incorporation was measured by liquid scintillation, and represented the results as stimulation indexes (S.I.: the ratio between the cpm obtained in the presence of a given stimulus, and the average cpm obtained for non-stimulated control cultures).

mice with EMG weakness = experiment: Verification of myasthenic weakness with cholinesterase inhibitor in TAChR-immunized mice; assay type: in vivo, mouse; settings: i.p.
Experimental: To verify the myasthenic nature of the weakness observed, mice with significant weakness were injected i.p. with the cholinesterase inhibitor edrophonium chloride (Reversol, Organon Inc., West Orange, N.J.). […] The test was performed blindly, i.e., without knowledge of the treatment that the mouse had received.
Evaluation of Clinical Symptoms of EMG. The symptoms of EMG were quantified using a forced exercise by the inverted hang technique, sensitized by a minute amount of pancuronium bromide (0.03 mg/kg intraperitoneum), given just before the test (Karachunski et al., 1995). The mice hang from a grid, and the time it took for the mouse to release its hold and fall three times is measured (“holding time”). […] This test is parametric, and gives a quantitative assessment of the severity of the mouse weakness. […]
Evaluation of the symptoms of EMG The EMG symptoms were quantified using a forced exercise test sensitized by i.p. injection of a minute amount of pancuronium bromide (0.03 mg/kg) just before the test (Karachunski et al., 1995). The mouse hangs from a grid suspended above a soft padding, and the time it takes the mouse to fall three times (‘holding time’) was measured. The test is parametric, and gives a quantitative assessment of the mouse weakness. […]

[3] = test system: SCID mice engrafted with BL; experiment: Verification of myasthenic weakness with cholinesterase inhibitor in SCID mice engrafted with BL from MG patients; assay type: in vivo, mouse
Experimental: Assay of myasthenic symptoms. The myasthenic symptoms were quantified using a forced exercise test sensitized by administration of a minute amount of pancuronium bromide (0.03 mg/kg intraperitoneum) just before the test. The small amount of pancuronium inactivates a fraction of the mouse muscle AChR. […] The mice hang from a grid suspended above a soft padding, and the time it took the mouse to fall three times (“holding time”) was measured. The test is parametric and gives a quantitative assessment of the mouse weakness. The mice were tested without knowledge of the type of cells engrafted.
The myasthenic nature of the weakness was verified by injecting intraperitoneum edrophonium chloride (Reversol; Organon Inc., West Orange, N.J.). […] The concentrations of human IgG and IgM in the mouse sera was measured by ELISA. Microtiter plates (Nunc, Roskilde, Denmark) were coated with goat anti-human IgG or IgM Ab (pierce, Rockford, Ill.) in 20 mM sodium carbonate buffer, pH 9.5 (coating buffer), and blocked any uncoated sites with 3% bovine serum albumin (BSA) in coating buffer. Mouse sera diluted serially in PBS was added, and incubated at 4° C. overnight. After four washings with PBS containing 1% Triton X-100, peroxidase conjugated anti-human IgG and IgM Ab (Sigma, St. Louis, Mo.) was added. […] The optical density of the plates was read at 490 nm in an ELISA reader. […]

EMG = settings: s.c. or i.p. 300 μg in IFA, 7 days before or 7-18 days after first TAChR immunization; cited from earlier work

1-20: synthetic peptide, residues 1-20 of the FVIII precursor (MQIELSTCFFLCLLRFCFSA; UniProt P00451 1-20, looked up, fragment)
recognition of individual FVIII peptides by CD4+ cells (anti-FVIII CD4+ cells): recognized especially strongly

1671-1690: synthetic peptide, residues 1671-1690 of the FVIII precursor (RTTLQSDQEEIDYDDTISVE; UniProt P00451 1671-1690, looked up, fragment)
recognition of individual FVIII peptides by CD4+ cells (anti-FVIII CD4+ cells): recognized especially strongly

peptide Tα360-378: synthetic peptide corresponding to residues 360-378 of the TAChR α subunit (VIFQTPLIKNPDVKSAIEG; UniProt P02710 384-402, looked up, fragment)
anti-peptide IgG2a [1]: moderate synthesis of IgG2a
recognition of individual peptide by cells from sham-treated mice [2]: recognized strongly
response of CD4+ cells from sham-tolerized mice to the peptide (spleen CD4+ T-cells): three of the five

CC[N+](C)(C)c1cccc(O)c1 [Reversol, edrophonium chloride]
effect on strength of mice with weakness (mice with EMG weakness): immediately improved the strength; also recorded: immediately increased the strength
effect on muscle strength of mice with normal holding time ([3]; SCID mice): did not increase the muscle strength
effect on strength of affected mice ([3]; intraperitoneum, SCID mice engrafted with BL from MG patients): immediately improved the strength; also recorded: improvement of the muscle strength

peptide Tα146-162: overlapping synthetic TAChR α subunit peptide that overlaps Tα150-169 (LGIWTYDGTKVSISPES; UniProt P02710 170-186, looked up, fragment)
recognition of individual peptide by cells from peptide-treated mice ([2]; IL-4 KO mice): strongly
recognition of individual peptide by cells from sham-treated mice [2]: recognized strongly
effect on EMG (EMG): prevented EMG
